Experimental data as given in patent US20170158636A1, “FUNCTIONALISED AND SUBSTITUTED CARBAZOLES AS ANTI-CANCER AGENTS” (Novogen Ltd., priority 2014, published 2017).

System: actin cytoskeleton in SK-N-SH neuroblastoma cells
Assay: Microfilament disruption assay (phalloidin staining, linear feature quantitation)
Format: cell-based
Conditions: 0-40 μM, 24 hours post treatment
Procedure: FIG. 1: Imaging and quantitation of actin filaments in SK-N-SH neuroblastoma cells treated with compound (A) 1007, (B) 1013 and (C) 1016. Cells were stained with 488-Atto-Phallodin and DAPI to visualize the actin filament bundles and the nucleus, respectively. Shown in the top panel is a representative gray scale immunofluorescent image from control (vehicle alone), 5 μM and 10 μM treated cells. […] The coloured lines indicate the detected actin filaments. Also shown is the quantitation of cell number, filament number/cell and filament number/cell area (μM^2). Statistical analysis was performed using a one way ANNOVA-multiple comparison where each drug treated group was compared to the control. ****p<0.0001, […].
The ability of compounds 1007, 1013 and 1016 to disrupt the actin cytoskeleton was assessed in vitro using the microfilament disruption assay (FIG. 1).
Briefly, SK-N-SH neuroblastoma cells were seeded at 1800 cells/well in a 384 Perkin Elmer High Content Imaging “Cell Carrier” plate and left to plate down 24 hours prior to treatment. Cells were then treated with 0-40 μM of the test compounds (1:2 serial dilution in a 10 point dose response). 24 hours post treatment, cells were fixed with 4% w/v paraformaldehyde (PBS), permeabilized with Triton-X-100 and stained with 488-Atto-Phallodin and DAPI to visualize the actin filament bundles and the nucleus respectively. Single plane images were obtained on the Perkin Elmer Opera confocal microscope using a 20× objective. Twelve fields of view per condition (representing approximately 300-800 cells) were imaged. Images were then exported and changes in the organization and numbers of actin filaments within the cell were quantitated using a linear feature detection algorithm developed by CSIRO (Vindin et al. 2014). This algorithm detects the “ridge lines” or “peaks” in local pixel intensity in the cell image. It is these “ridge lines” that correspond to actin filament bundles and allow us to quantitate the number of filaments per cell.

CCN(CC)CCCn1c2ccccc2c2cc(C(=O)N3CCN(CCc4ccc(F)cc4)CC3)ccc21 [Compound 1007, (9-(3-(diethylamino)propyl)-9H-carbazol-3-yl)(4-(4-fluorophenethyl)piperazin-1-yl)methanone]
disruption of the actin cytoskeleton: disrupt the actin cytoskeleton in a dose-dependent manner
